Laboratory results from ChEMBL document CHEMBL1144730, “Novel antibacterial azetidine lincosamides” (Bioorg Med Chem Lett, 2008).
In brackets after ≈: the same amount, converted by molar mass.

Legend:
Format in all cases: functional
[1] = system: Enterococcus faecium; experiment: Antibacterial activity against Enterococcus faecium by broth microdilution method
[2] = system: Staphylococcus aureus; experiment: Antibacterial activity against macrolide, licosamide and streptogramin resistant Staphylococcus aureus by broth microdilution method
[3] = system: Staphylococcus aureus; experiment: Antibacterial activity against Staphylococcus aureus by broth microdilution method
[4] = system: Streptococcus pneumoniae; experiment: Antibacterial activity against Streptococcus pneumoniae by broth microdilution method
[5] = system: Escherichia coli; experiment: Inhibition of protein synthesis in Escherichia coli by transcription/translation inhibition assay
[6] = system: Bacteroides fragilis; experiment: Antibacterial activity against Bacteroides fragilis by broth microdilution method
[7] = system: Enterococcus faecalis; experiment: Antibacterial activity against Enterococcus faecalis by broth microdilution method
[8] = system: Staphylococcus aureus; experiment: Antibacterial activity against Staphylococcus aureus Smith infected iv dosed mouse septicemia model
[9] = system: Staphylococcus aureus; experiment: Antibacterial activity against Staphylococcus aureus Smith infected po dosed mouse septicemia model

Question: CS[C@H]1O[C@H]([C@H](NC(=O)[C@H]2NC[C@@H]2CC2CC2)[C@H](C)Cl)[C@H](O)[C@H](O)[C@H]1O was tested. Which MIC [1] did it give?
Answer: 0.5 µg/mL (≈ 1.22 µM)

Question: What about the MIC [2] of the same molecule?
Answer: > 8 µg/mL

Question: What about the MIC [3] of the same molecule?
Answer: 0.5 µg/mL (≈ 1.22 µM)

Question: What about the MIC [4] of the same molecule?
Answer: 0.125 µg/mL (≈ 0.306 µM)

Question: What about the IC50 [5] of the same molecule?
Answer: 11.1 µM

Question: And the MIC [6]?
Answer: 0.5 µg/mL (≈ 1.22 µM)

Question: And the MIC [7]?
Answer: 1 µg/mL (≈ 2.45 µM)

Question: How did the MIC [1] turn out when CCCC[C@H]1CN(C)[C@@H]1C(=O)N[C@@H]([C@H]1O[C@H](SC)[C@H](O)[C@@H](O)[C@H]1O)[C@H](C)Cl was run?
Answer: 1 µg/mL (≈ 2.35 µM)

Question: And the MIC [2]?
Answer: > 4 µg/mL

Question: And the MIC [3]?
Answer: 1 µg/mL (≈ 2.35 µM)

Question: And the MIC [4]?
Answer: 0.5 µg/mL (≈ 1.18 µM)

Question: And the MIC [6]?
Answer: 0.125 µg/mL (≈ 0.294 µM)

Question: What about the MIC [7] of the same molecule?
Answer: 2 µg/mL (≈ 4.71 µM)

Question: Which results are given for CCCC[C@H]1CN[C@@H]1C(=O)N[C@@H]([C@H]1O[C@H](SC)[C@H](O)[C@@H](O)[C@H]1O)[C@H](C)Cl?
Answer: MIC [1]: 0.125 µg/mL (≈ 0.304 µM); MIC [2]: > 8 µg/mL; MIC [3]: 0.125 µg/mL (≈ 0.304 µM); MIC [4]: 0.06 µg/mL (≈ 0.146 µM); IC50 [5]: 0.36 µM; MIC [6]: 0.125 µg/mL (≈ 0.304 µM); MIC [7]: 0.125 µg/mL (≈ 0.304 µM); ED50 [8]: 1.1 mg/kg; ED50 [9]: 10.8 mg/kg

Question: Which results are given for CS[C@H]1O[C@H]([C@H](NC(=O)[C@H]2NC[C@@H]2CCC2CCC2)[C@H](C)Cl)[C@H](O)[C@H](O)[C@H]1O?
Answer: MIC [1]: 0.25 µg/mL (≈ 0.572 µM); MIC [2]: > 4 µg/mL; MIC [3]: 0.25 µg/mL (≈ 0.572 µM); MIC [4]: 0.125 µg/mL (≈ 0.286 µM); MIC [6]: 0.25 µg/mL (≈ 0.572 µM); MIC [7]: 0.25 µg/mL (≈ 0.572 µM)

Question: CCC[C@H]1CN[C@@H]1C(=O)N[C@@H]([C@H]1O[C@H](SC)[C@H](O)[C@@H](O)[C@H]1O)[C@H](C)Cl was tested. Which MIC [1] did it give?
Answer: 0.5 µg/mL (≈ 1.26 µM)

Question: And the MIC [2]?
Answer: > 8 µg/mL

Question: What about the MIC [3] of the same molecule?
Answer: 0.5 µg/mL (≈ 1.26 µM)

Question: And the MIC [4]?
Answer: 0.125 µg/mL (≈ 0.315 µM)

Question: And the IC50 [5]?
Answer: 12.8 µM

Question: What about the MIC [6] of the same molecule?
Answer: 0.5 µg/mL (≈ 1.26 µM)

Question: And the MIC [7]?
Answer: 0.5 µg/mL (≈ 1.26 µM)

Question: Which results are given for CS[C@H]1O[C@H]([C@H](NC(=O)[C@H]2NC[C@@H]2CCCC2CC2)[C@H](C)Cl)[C@H](O)[C@H](O)[C@H]1O?
Answer: MIC [1]: 0.125 µg/mL (≈ 0.286 µM); MIC [2]: > 4 µg/mL; MIC [3]: 0.125 µg/mL (≈ 0.286 µM); MIC [4]: 0.06 µg/mL (≈ 0.137 µM); IC50 [5]: 2.75 µM; MIC [6]: 0.25 µg/mL (≈ 0.572 µM); MIC [7]: 0.25 µg/mL (≈ 0.572 µM); ED50 [8]: 3.1 mg/kg

Question: Which results are given for CCCCC[C@H]1CN[C@@H]1C(=O)N[C@@H]([C@H]1O[C@H](SC)[C@H](O)[C@@H](O)[C@H]1O)[C@H](C)Cl?
Answer: MIC [1]: 0.125 µg/mL (≈ 0.294 µM); MIC [2]: > 8 µg/mL; MIC [3]: 0.06 µg/mL (≈ 0.141 µM); MIC [4]: 0.03 µg/mL (≈ 0.0706 µM); IC50 [5]: 1.13 µM; MIC [6]: 0.125 µg/mL (≈ 0.294 µM); MIC [7]: 0.25 µg/mL (≈ 0.588 µM); ED50 [8]: 1.7 mg/kg; ED50 [9]: 28 mg/kg

Question: CS[C@H]1O[C@H]([C@H](NC(=O)[C@H]2NC[C@@H]2CCC(C)C)[C@H](C)Cl)[C@H](O)[C@H](O)[C@H]1O was tested. Which MIC [1] did it give?
Answer: 0.5 µg/mL (≈ 1.18 µM)

Question: What about the MIC [2] of the same molecule?
Answer: > 8 µg/mL

Question: What about the MIC [3] of the same molecule?
Answer: 0.5 µg/mL (≈ 1.18 µM)

Question: And the MIC [4]?
Answer: 0.125 µg/mL (≈ 0.294 µM)

Question: What about the IC50 [5] of the same molecule?
Answer: 15.5 µM

Question: And the MIC [6]?
Answer: 0.5 µg/mL (≈ 1.18 µM)

Question: What about the MIC [7] of the same molecule?
Answer: 0.5 µg/mL (≈ 1.18 µM)

Question: Which MIC [1] does the source give for CS[C@H]1O[C@H]([C@H](NC(=O)[C@H]2NC[C@@H]2CCCC2CCC2)[C@H](C)Cl)[C@H](O)[C@H](O)[C@H]1O here?
Answer: 0.06 µg/mL (≈ 0.133 µM)

Question: What about the MIC [2] of the same molecule?
Answer: > 4 µg/mL

Question: And the MIC [3]?
Answer: 0.03 µg/mL (≈ 0.0665 µM)

Question: And the MIC [4]?
Answer: 0.016 µg/mL (≈ 0.0355 µM)

Question: And the IC50 [5]?
Answer: 2.44 µM

Question: And the MIC [6]?
Answer: 0.25 µg/mL (≈ 0.554 µM)

Question: What about the MIC [7] of the same molecule?
Answer: 0.06 µg/mL (≈ 0.133 µM)

Question: What about the ED50 [8] of the same molecule?
Answer: > 10 mg/kg

Question: What does the source list for CCCC[C@H]1CN(CCO)[C@@H]1C(=O)N[C@@H]([C@H]1O[C@H](SC)[C@H](O)[C@@H](O)[C@H]1O)[C@H](C)Cl?
Answer: MIC [1]: 0.25 µg/mL (≈ 0.549 µM); MIC [2]: > 8 µg/mL; MIC [3]: 0.5 µg/mL (≈ 1.1 µM); MIC [4]: 0.125 µg/mL (≈ 0.275 µM); MIC [6]: 0.5 µg/mL (≈ 1.1 µM); MIC [7]: 0.5 µg/mL (≈ 1.1 µM)

Question: For CCC[C@@H]1C[C@@H](C(=O)N[C@@H]([C@H]2O[C@H](SC)[C@H](O)[C@@H](O)[C@H]2O)[C@H](C)Cl)N(C)C1 [CLINDAMYCIN], which MIC [1] is on record?
Answer: 0.125 µg/mL (≈ 0.294 µM)

Question: What about the MIC [2] of the same molecule?
Answer: > 8 µg/mL

Question: And the MIC [3]?
Answer: 0.125 µg/mL (≈ 0.294 µM)

Question: And the MIC [4]?
Answer: 0.06 µg/mL (≈ 0.141 µM)

Question: And the MIC [7]?
Answer: 0.25 µg/mL (≈ 0.588 µM)

Question: What about the ED50 [8] of the same molecule?
Answer: 2.8 mg/kg

Question: What about the ED50 [9] of the same molecule?
Answer: 19.9 mg/kg

Question: Which results are given for CS[C@H]1O[C@H]([C@H](NC(=O)[C@H]2NC[C@@H]2CCC(F)F)[C@H](C)Cl)[C@H](O)[C@H](O)[C@H]1O?
Answer: MIC [1]: 0.5 µg/mL (≈ 1.15 µM); MIC [2]: > 4 µg/mL; MIC [3]: 1 µg/mL (≈ 2.31 µM); MIC [4]: 0.125 µg/mL (≈ 0.289 µM); MIC [6]: 1 µg/mL (≈ 2.31 µM); MIC [7]: 2 µg/mL (≈ 4.62 µM)

Question: What does the source list for CS[C@H]1O[C@H]([C@H](NC(=O)[C@H]2NC[C@@H]2CCC2CC2)[C@H](C)Cl)[C@H](O)[C@H](O)[C@H]1O?
Answer: MIC [1]: 0.125 µg/mL (≈ 0.296 µM); MIC [2]: > 4 µg/mL; MIC [3]: 0.25 µg/mL (≈ 0.591 µM); MIC [4]: 0.125 µg/mL (≈ 0.296 µM); IC50 [5]: 7.8 µM; MIC [6]: 0.25 µg/mL (≈ 0.591 µM); MIC [7]: 0.25 µg/mL (≈ 0.591 µM); ED50 [8]: 3 mg/kg
